Laboratory results: US10308643B2, “Heterocyclic compound” (Takeda Pharmaceutical Company Limited, priority 2015, dated 2019)

Tests used:
Format in all cases: biochemical
HDAC1 enzyme = target: T1, HDAC1 enzyme (Homo sapiens, UniProt Q13547); assay: HDAC1/6 Enzyme Inhibitory Assay (HDAC-Glo I/II Assay kit), HDAC1; settings: 1 μM test compound, wells without enzyme = 100% inhibition; for inhibition at 1 µM: read-out: HDAC1 inhibitory rate (%) (1 μM)
T1 construct: transducing full length HDAC1 and HDAC6 genes into Sf-9 insect cells; GST; purchased SignalChem; host or cells: Sf-9 insect cells
Procedure, shortened: (§1)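 Full-length human HDAC1 or HDAC6, expressed in Sf-9 cells and GST-purified, was preincubated with compound for 60 min at room temperature in Tris-HCl pH 7.5 buffer with MgCl2, KCl, NaCl, glutathione and Tween-20. HDAC-Glo substrate-developer was then added, and luminescence was read after 20 min. Inhibition was referenced to no-enzyme wells as 100%.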

HDAC6 enzyme = target: T2, HDAC6 enzyme (Homo sapiens, UniProt Q9UBN7); assay: HDAC1/6 Enzyme Inhibitory Assay (HDAC-Glo I/II Assay kit), HDAC6; settings: 1 μM test compound, wells without enzyme = 100% inhibition; for inhibition at 1 µM: read-out: HDAC6 inhibitory rate (%) (1 μM)
T2 construct: transducing full length HDAC1 and HDAC6 genes into Sf-9 insect cells; GST; purchased SignalChem; host or cells: Sf-9 insect cells
T2 sequence (Q9UBN7 1-1215): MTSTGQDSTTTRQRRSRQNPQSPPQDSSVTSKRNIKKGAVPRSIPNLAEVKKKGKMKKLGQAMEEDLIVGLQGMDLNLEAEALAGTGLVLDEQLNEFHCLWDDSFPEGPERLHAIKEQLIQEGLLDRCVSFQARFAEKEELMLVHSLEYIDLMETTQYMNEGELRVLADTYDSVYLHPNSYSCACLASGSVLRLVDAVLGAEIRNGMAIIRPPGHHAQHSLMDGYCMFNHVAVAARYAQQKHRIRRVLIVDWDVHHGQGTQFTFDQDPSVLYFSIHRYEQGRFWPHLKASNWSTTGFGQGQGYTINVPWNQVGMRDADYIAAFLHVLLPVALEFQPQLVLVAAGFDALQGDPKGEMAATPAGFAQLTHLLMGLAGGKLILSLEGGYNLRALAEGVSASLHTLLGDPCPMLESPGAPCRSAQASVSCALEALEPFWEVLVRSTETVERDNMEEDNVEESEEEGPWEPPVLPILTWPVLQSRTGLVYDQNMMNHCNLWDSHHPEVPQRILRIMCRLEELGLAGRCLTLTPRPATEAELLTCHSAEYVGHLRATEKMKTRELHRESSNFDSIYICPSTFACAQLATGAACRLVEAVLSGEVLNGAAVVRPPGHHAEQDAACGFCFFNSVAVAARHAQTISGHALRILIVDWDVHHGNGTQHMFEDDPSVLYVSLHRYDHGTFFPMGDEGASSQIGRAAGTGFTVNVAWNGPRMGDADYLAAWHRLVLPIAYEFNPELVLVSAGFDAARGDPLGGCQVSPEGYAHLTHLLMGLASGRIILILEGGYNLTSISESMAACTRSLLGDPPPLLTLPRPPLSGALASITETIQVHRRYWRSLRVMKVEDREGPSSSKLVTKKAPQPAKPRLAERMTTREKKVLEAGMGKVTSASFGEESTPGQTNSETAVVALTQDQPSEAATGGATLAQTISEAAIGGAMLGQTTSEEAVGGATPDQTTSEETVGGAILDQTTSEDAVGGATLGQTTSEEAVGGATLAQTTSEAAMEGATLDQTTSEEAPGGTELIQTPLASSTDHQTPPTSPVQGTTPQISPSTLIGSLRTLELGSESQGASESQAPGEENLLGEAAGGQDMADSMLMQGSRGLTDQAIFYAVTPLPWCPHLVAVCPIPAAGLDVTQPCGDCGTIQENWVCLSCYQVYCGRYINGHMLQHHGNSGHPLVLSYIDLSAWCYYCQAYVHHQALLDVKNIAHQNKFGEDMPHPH
Procedure, shortened: as §1

HDAC9 enzyme = target: T3, HDAC9 enzyme (Homo sapiens, UniProt Q9UKV0); assay: HDAC9 Enzyme Inhibitory Assay (HDAC-Glo class IIa); settings: 1 μM test compound, wells without enzyme = 100% inhibition; for inhibition at 1 µM: read-out: HDAC9 inhibitory rate (%) (1 μM)
T3 construct: transducing full length HDAC9 gene into Sf-9 insect cells; made in house; host or cells: Sf-9 insect cells
Procedure, shortened: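 Luminescent HDAC-Glo class IIa readout after a 20 min room-temperature reaction; relative inhibition referenced to enzyme-free wells as 100%. Test compound first preincubated 60 min with Sf-9-expressed, Ni-NTA-purified full-length HDAC9 in pH 7.5 Tris buffer containing 135 mM NaCl, 0.6 mM glutathione and 0.01% Tween-20.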

T1 sequence (Q13547 whole entry): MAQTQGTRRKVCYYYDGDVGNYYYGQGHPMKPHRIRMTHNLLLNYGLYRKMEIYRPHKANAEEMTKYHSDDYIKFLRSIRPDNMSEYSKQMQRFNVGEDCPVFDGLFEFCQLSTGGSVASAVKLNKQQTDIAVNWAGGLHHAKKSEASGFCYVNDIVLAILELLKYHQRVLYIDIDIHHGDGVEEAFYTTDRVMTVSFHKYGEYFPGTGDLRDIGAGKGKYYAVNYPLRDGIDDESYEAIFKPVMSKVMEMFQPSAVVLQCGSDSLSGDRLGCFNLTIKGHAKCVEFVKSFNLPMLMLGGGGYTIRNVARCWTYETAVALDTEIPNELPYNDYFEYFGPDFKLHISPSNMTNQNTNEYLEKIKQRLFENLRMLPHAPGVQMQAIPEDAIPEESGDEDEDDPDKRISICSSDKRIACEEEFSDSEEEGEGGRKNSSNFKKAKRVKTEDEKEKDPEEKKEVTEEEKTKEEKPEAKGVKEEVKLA
T3 sequence (Q9UKV0 whole entry, species assumed): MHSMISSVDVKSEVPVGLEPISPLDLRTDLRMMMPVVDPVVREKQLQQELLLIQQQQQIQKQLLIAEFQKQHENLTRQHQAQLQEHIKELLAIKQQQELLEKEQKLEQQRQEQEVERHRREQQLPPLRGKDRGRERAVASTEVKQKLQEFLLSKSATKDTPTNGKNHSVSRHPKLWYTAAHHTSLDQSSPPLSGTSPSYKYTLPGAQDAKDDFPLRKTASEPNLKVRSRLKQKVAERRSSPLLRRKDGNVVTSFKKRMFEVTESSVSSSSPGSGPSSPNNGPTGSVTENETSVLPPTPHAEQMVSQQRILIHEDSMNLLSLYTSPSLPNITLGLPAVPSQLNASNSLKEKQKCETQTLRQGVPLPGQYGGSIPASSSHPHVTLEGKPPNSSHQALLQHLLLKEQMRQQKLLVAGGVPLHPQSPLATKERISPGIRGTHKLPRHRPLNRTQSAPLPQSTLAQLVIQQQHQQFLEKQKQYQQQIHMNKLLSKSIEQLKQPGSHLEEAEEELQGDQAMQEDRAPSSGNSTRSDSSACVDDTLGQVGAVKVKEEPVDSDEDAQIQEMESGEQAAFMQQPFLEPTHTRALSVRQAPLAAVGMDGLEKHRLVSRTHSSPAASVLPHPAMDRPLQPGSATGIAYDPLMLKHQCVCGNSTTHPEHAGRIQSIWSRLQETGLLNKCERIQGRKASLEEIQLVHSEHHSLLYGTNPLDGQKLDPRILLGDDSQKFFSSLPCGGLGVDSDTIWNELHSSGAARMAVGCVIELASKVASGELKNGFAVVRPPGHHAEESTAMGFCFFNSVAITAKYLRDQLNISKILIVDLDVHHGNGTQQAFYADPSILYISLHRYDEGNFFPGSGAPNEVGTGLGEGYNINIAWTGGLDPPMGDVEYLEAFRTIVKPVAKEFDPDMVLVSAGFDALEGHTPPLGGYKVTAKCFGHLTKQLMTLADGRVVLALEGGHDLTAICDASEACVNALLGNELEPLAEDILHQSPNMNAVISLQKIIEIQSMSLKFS

inhibition at 1 µM (HDAC1 enzyme) [%] | inhibition at 1 µM (HDAC6 enzyme) [%] | inhibition at 1 µM (HDAC9 enzyme) [%] | HDAC1 inhibitory rate (%) (1 μM) (HDAC1 enzyme; 1 µM) | HDAC6 inhibitory rate (%) (1 μM) (HDAC6 enzyme; 1 µM) | HDAC9 inhibitory rate (%) (1 μM) (HDAC9 enzyme; 1 µM) | Structure (SMILES)
5 | 68 | 75 |  |  |  | N[C@H]1CCCC[C@H]1N1Cc2ccc(-c3noc(C(F)(F)F)n3)cc2C1=O (relative stereo) [Example 199, 2-(cis-2-aminocyclohexyl)-6-(5-(trifluoromethyl)-1,2,4-oxadiazol-3-yl)isoindolin-1-one]
 |  |  | 7 | 99 | 71 | CC(CO)(CCl)C(=O)N[C@@H]1CCCC[C@H]1N1Cc2ccc(-c3noc(C(F)(F)F)n3)cc2C1=O (relative stereo) [Example 204, 3-chloro-2-(hydroxymethyl)-2-methyl-N-(trans-2-(1-oxo-6-(5-(trifluoromethyl)-1,2,4-oxadiazol-3-yl)-1,3-dihydro-2H-isoindol-2-yl)cyclohexyl)propanamide]
3 | 98 | 43 |  |  |  | CN1CCC[C@H]1C(=O)N[C@@H]1CCCC[C@H]1N1Cc2ccc(-c3noc(C(F)(F)F)n3)cc2C1=O [Example 104, 1-methyl-N-((1R,2R)-2-(1-oxo-6-(5-(trifluoromethyl)-1,2,4-oxadiazol-3-yl)-1,3-dihydro-2H-isoindol-2-yl)cyclohexyl)-L-prolinamide]
10 | 95 | 45 |  |  |  | CN(C)C(=O)c1ccccc1N1Cc2ccc(-c3noc(C(F)(F)F)n3)cc2C1=O [Example 188, N,N-dimethyl-2-(1-oxo-6-(5-(trifluoromethyl)-1,2,4-oxadiazol-3-yl)-1,3-dihydro-2H-isoindol-2-yl)benzamide]
3 | 100 | 26 |  |  |  | CC1(C(=O)N[C@@H]2CCCC[C@H]2N2Cc3ccc(-c4noc(C(F)(F)F)n4)cc3C2=O)CNC1 [Example 194, 3-methyl-N-((1R,2R)-2-(1-oxo-6-(5-(trifluoromethyl)-1,2,4-oxadiazol-3-yl)-1,3-dihydro-2H-isoindol-2-yl)cyclohexyl)azetidine-3-carboxamide]
-4 | 56 | 5 |  |  |  | CN1CCC(C(=O)N[C@@H]2CCCC[C@H]2N2Cc3ccc(-c4noc(C(F)(F)F)n4)cc3C2=O)CC1 [Example 123, 1-methyl-N-((1R,2R)-2-(1-oxo-6-(5-(trifluoromethyl)-1,2,4-oxadiazol-3-yl)-1,3-dihydro-2H-isoindol-2-yl)cyclohexyl)piperidine-4-carboxamide]
2 | 97 | 55 |  |  |  | CCC1(C(=O)N[C@@H]2CCCC[C@H]2N2Cc3ccc(-c4noc(C(F)(F)F)n4)cc3C2=O)COC1 [Example 138, 3-ethyl-N-((1R,2R)-2-(1-oxo-6-(5-(trifluoromethyl)-1,2,4-oxadiazol-3-yl)-1,3-dihydro-2H-isoindol-2-yl)cyclohexyl)oxetane-3-carboxamide]
31 | 85 | 89 |  |  |  | O=C(c1ccccc1)N1CC(N2Cc3ncc(-c4noc(C(F)(F)F)n4)cc3C2=O)C1 [Example 76, 6-(1-benzoylazetidin-3-yl)-3-(5-(trifluoromethyl)-1,2,4-oxadiazol-3-yl)-6,7-dihydro-5H-pyrrolo[3,4-b]pyridin-5-one]
6 | 97 | 67 |  |  |  | N#CC1(C(=O)N[C@@H]2CCCC[C@H]2N2Cc3ccc(-c4noc(C(F)(F)F)n4)cc3C2=O)CC1 [Example 122, 1-cyano-N-((1R,2R)-2-(1-oxo-6-(5-(trifluoromethyl)-1,2,4-oxadiazol-3-yl)-1,3-dihydro-2H-isoindol-2-yl)cyclohexyl) cyclopropanecarboxamide]
10 | 98 | 40 |  |  |  | O=C(N[C@@H]1CCCC[C@H]1N1Cc2ccc(-c3noc(C(F)(F)F)n3)cc2C1=O)N1CCC(F)(F)C1 [Example 169, 3,3-difluoro-N-((1R,2R)-2-(1-oxo-6-(5-(trifluoromethyl)-1,2,4-oxadiazol-3-yl)-1,3-dihydro-2H-isoindol-2-yl)cyclohexyl)pyrrolidine-1-carboxamide]
16 | 35 | 42 |  |  |  | CC1(C(=O)N[C@@H]2CCC[C@H]2N2Cc3ccc(-c4noc(C(F)(F)F)n4)cc3C2=O)COC1 [Example 151, 3-methyl-N-((1R,2R)-2-(1-oxo-6-(5-(trifluoromethyl)-1,2,4-oxadiazol-3-yl)-1,3-dihydro-2H-isoindol-2-yl)cyclopentyl)oxetane-3-carboxamide]
26 | 97 | 95 |  |  |  | O=C1CCCN1[C@@H]1CCCC[C@H]1N1Cc2ncc(-c3noc(C(F)(F)F)n3)cc2C1=O [Example 186, 6-((1R,2R)-2-(2-oxopyrrolidin-1-yl)cyclohexyl)-3-(5-(trifluoromethyl)-1,2,4-oxadiazol-3-yl)-6,7-dihydro-5H-pyrrolo[3,4-b]pyridin-5-one]
7 | 89 | 73 |  |  |  | O=C(Cn1c(=O)oc2ccccc21)N1CCC(N2Cc3ccc(-c4noc(C(F)(F)F)n4)cc3C2=O)CC1 [Example 65, 3-(2-oxo-2-(4-(1-oxo-6-(5-(trifluoromethyl)-1,2,4-oxadiazol-3-yl)-1,3-dihydro-2H-isoindol-2-yl)piperidin-1-yl)ethyl)-1,3-benzoxazol-2(3H)-one]
52 | 96 | 95 |  |  |  | O=C(c1ccccc1)N1CCC(N2Cc3ncc(-c4noc(C(F)(F)F)n4)cc3C2=O)C1 (stereo not drawn) [Example 70, 6-(1-benzoylpyrrolidin-3-yl)-3-(5-(trifluoromethyl)-1,2,4-oxadiazol-3-yl)-6,7-dihydro-5H-pyrrolo[3,4-b]pyridin-5-one]
4 | 97 | 27 |  |  |  | O=C(Cc1cc(=O)[nH][nH]1)N[C@@H]1CCCC[C@H]1N1Cc2ccc(-c3noc(C(F)(F)F)n3)cc2C1=O [Example 117, 2-(5-oxo-2,5-dihydro-1H-pyrazol-3-yl)-N-((1R,2R)-2-(1-oxo-6-(5-(trifluoromethyl)-1,2,4-oxadiazol-3-yl)-1,3-dihydro-2H-isoindol-2-yl)cyclohexyl)acetamide]
4 | 101 | 22 |  |  |  | CN1CC(C)(C(=O)N[C@@H]2CCCC[C@H]2N2Cc3ccc(-c4noc(C(F)(F)F)n4)cc3C2=O)C1 [Example 196, 1,3-dimethyl-N-((1R,2R)-2-(1-oxo-6-(5-(trifluoromethyl)-1,2,4-oxadiazol-3-yl)-1,3-dihydro-2H-isoindol-2-yl)cyclohexyl)azetidine-3-carboxamide]
7 | 100 | 50 |  |  |  | O=C(N[C@@H]1CCCC[C@H]1N1Cc2ccc(-c3noc(C(F)(F)F)n3)cc2C1=O)C1CC1(F)F (stereo partly drawn) [Example 105, 2,2-difluoro-N-((1R,2R)-2-(1-oxo-6-(5-(trifluoromethyl)-1,2,4-oxadiazol-3-yl)-1,3-dihydro-2H-isoindol-2-yl)cyclohexyl) cyclopropanecarboxamide]
